Where two headings read alike, the source gives them in different places.

Series [1] is described as follows: Stability test in liver microsomes, mouse. The format is in vitro ADME. Conditions: for half-life at 1 μM: 0.5 mg/mL. How it is done: A stability of the compound of the present application in liver microsomes of human, rat and mouse was measured.
3.1 A buffer and a liver microsome were prepared into an incubation solution according to the following table:
3.2 The following two experiments were carried out respectively: a) incubation system added with coenzyme factor NADPH: 25 μL of NADPH (10 mM) was added into an incubation solution (mainly comprising a liver microsome and a phosphate buffer), so that final concentrations of the liver microsome and the NADPH were 0.5 mg/mL and […] respectively; and b) incubation system without coenzyme factor NADPH: 25 μL of phosphate buffer (100 mM) was added into the incubation solution, so that the final concentration of the liver microsome was 0.5 mg/mL. The incubation systems above were preheated at 37° C. for 10 minutes respectively.
3.3 2.5 μL of positive control compound or a tested compound solution (100 μM) was added into the incubation systems described in “step 3.2” above respectively for reaction, and the positive control compound was verapamil (purchased from Sigma), so that a final concentration of the tested compound of the present application or the positive control compound was 1 μM. The incubation solution added with the compound was incubated in water at 37° C. in batches.
3.4 30 μL of aliquot was taken from a reaction solution after 0.5 minute, 5 minutes, 15 minutes, 30 minutes and 45 minutes respectively, and the reaction was terminated by adding 5 times volume of cold acetonitrile containing 200 nM caffeine and 100 nM tolbutamide. The aliquot was centrifuged at a gravity acceleration of 3,220 g for 40 minutes, and 100 μL of supernatant was mixed with 100 μL of ultrapure water, and then used for LC-MS/MS analysis.
A peak area was determined by an extracted ion chromatogram. A slope value k was determined by linear regression of a remaining percentage of a parent drug relative to […] an incubation time curve.
In-vitro half-life periods (t1/2) were respectively calculated and determined according to the slope value, and an average value of the in-vitro half-life periods was converted into an in-vitro intrinsic clearance rate (CLint, represented by μL/min/mg protein).
For orientation: Microsomes from liver hold many membrane-bound enzymes, among them those of drug oxidation.

A further series concerns the target TRKC(G623R) (Homo sapiens (Human), UniProt Q16288, G623R). Description: Kinase inhibitory activity (Caliper mobility shift), TRKC(G623R). It is filed as biochemical. Here is the method:
Sundia Meditech (Shanghai) Co., Ltd. was commissioned to complete the testing example.
3.1 A tested compound was accurately weighed and dissolved in 100% DMSO to prepare into a 10 mM solution.
250 nL of the compound of 100 times final concentration was transferred to a reaction plate OptiPlate-384F by a dispenser Echo 550.
3.2.3 A kinase solution of 2.5 times final concentration was prepared with 1×kinase buffer.
3.2.4 10 μL of kinase solution of 2.5 times final concentration was added into a compound well and a positive control well respectively; and 10 μL of 1×kinase buffer was added into a negative control well.
3.2.5 The reaction plate was shaken and mixed evenly, and then incubated at room temperature for 10 minutes.
3.2.6 Mixed solutions of ATP and kinase substrate 22 of 5 times and 3 times final concentrations were prepared with 1×kinase buffer.
3.2.7 15 μL of mixed solution of ATP and substrate of 5 times or 3 times final concentration was added.
3.2.8 The 384-well plate was centrifuged at 1,000 rpm for 30 seconds, shaken and mixed evenly, and then incubated at room temperature for corresponding time.
3.2.9 The kinase reaction was terminated.
3.2.10 A conversion rate was read by the microplate reader Caliper EZ Reader.
Calculation Formula Inhibition rate %=(conversion rate % maximum−conversion rate % sample)/(conversion rate % maximum−conversion rate % minimum)×100
wherein the conversion rate % sample was: a reading number of a conversion rate of a sample; the conversion rate % minimum was: an average value of the negative control well, which represented a reading number of a conversion rate without an enzyme activity well; and the conversion rate % maximum was: an average value of a ratio of the positive control well, which represented a reading number of a conversion rate without a compound inhibition well.
Fitting of dose-effect curve: a log value of concentration was used as an X axis, a percentage inhibition rate was used as a Y axis, and the dose-effect curve was fitted by a log (inhibitor) vs. response-variable slope of the analysis software GraphPad Prism 5 (four-parameter model fitting), so as to obtain an IC50 value of each compound on enzyme activity.

Series [2] in a line: In-vivo pharmacokinetic study on SD rats, intravenous and oral. Conditions: rat, plasma; for AUC(0-t): read-out: Area under curve AUC(0-t); for Cmax: read-out: Concentration to peak Cmax; for half-life: read-out: Half-life period t1/2 (converted); for bioavailability: read-out: Bioavailability F %. Here is the method: Species: SD rats, SPF level. Source: the animals were transferred from the animal repository (999M-017) of the experimental institution of Shanghai Sippe-Bk Lab Animal Co., Ltd. Quantity: 3 rats for each formulation.
2.1 An appropriate amount of test samples were accurately weighed, added to a final volume of 5% DMSO, 10% polyethylene glycol-15 hydroxystearate and 85% normal saline, and fully mixed by vortex or ultrasound to obtain 0.2 mg/mL administration solution for intravenous administration.
2.2 An appropriate amount of test samples were accurately weighed, added to a final volume of 5% DMSO, 10% polyethylene glycol-15 hydroxystearate and 85% normal saline, and fully mixed by vortex or ultrasound to obtain 0.5 mg/mL administration solution for oral and intragastric administration.
Weighing was carried out before administration, and the dosage was calculated according to the weight. Intravenous administration, or oral intragastric administration was carried out.
The blood sampling was carried out before administration and 0.083 hour, 0.25 hour, 0.5 hour, 1 hour, 2 hours, 4 hours, 6 hours, 8 hours, and 24 hours after administration.
The blood sampling was carried out through a jugular vein or other suitable modes, and about 0.20 mL of each sample was collected. Heparin sodium was used for anticoagulation, the collected blood samples were placed on ice, and plasma was centrifuged within 2 hours (the centrifugation was carried out by a centrifugal force of 6,800 g for 6 minutes at 2° C. to 8° C.). The collected plasma samples were stored in a refrigerator at −80° C. before analysis, and the remaining plasma samples after analysis were continuously stored in the refrigerator at −80° C. for temporary storage.
A plasma concentration of a test subject was detected, a plasma concentration-time curve was drawn, and BLQs were all recorded as 0. […] According to blood concentration data at different time points, the pharmacokinetic parameters such as AUC(0-t), T1/2 and Cmax were calculated by WinNonlin.

Chain of TRKC(G623R) (Q16288 32-839 G623R): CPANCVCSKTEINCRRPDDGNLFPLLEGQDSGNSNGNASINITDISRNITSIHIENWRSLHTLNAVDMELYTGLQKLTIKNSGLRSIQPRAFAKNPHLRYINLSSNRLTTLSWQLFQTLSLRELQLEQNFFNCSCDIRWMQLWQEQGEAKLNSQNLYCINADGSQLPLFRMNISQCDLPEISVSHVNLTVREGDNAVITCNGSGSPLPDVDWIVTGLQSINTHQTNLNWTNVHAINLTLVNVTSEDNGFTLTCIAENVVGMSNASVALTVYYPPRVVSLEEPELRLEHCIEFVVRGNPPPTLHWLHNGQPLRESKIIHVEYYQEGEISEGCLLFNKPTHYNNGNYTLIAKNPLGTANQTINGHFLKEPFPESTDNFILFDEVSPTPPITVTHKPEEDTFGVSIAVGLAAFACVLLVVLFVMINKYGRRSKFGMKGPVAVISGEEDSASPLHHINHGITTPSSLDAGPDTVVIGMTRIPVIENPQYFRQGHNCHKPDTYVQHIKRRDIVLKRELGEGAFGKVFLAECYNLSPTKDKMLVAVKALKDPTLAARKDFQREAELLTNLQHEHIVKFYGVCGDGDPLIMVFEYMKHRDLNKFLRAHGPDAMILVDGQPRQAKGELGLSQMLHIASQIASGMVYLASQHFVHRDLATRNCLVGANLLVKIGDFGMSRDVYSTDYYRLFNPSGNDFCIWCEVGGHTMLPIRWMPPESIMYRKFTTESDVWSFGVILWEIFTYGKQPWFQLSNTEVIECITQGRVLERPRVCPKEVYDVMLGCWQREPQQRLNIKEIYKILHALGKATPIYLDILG

`O=C1N[C@H]2C[C@H](C2)Oc2ncc(F)cc2[C@H]2CCCN2c2ccn3ncc1c3n2` (stereo in doubt) [Positive control 1, reference compound]: in series [1], the microsomal CLint at 1 μM came to 78.6 µL/min/mg, the half-life at 1 μM came to 17.6 min and the “% Remaining(45 min)” value is 16.90%. The IC50 at TRKC(G623R) came out at 1.7 nM. In series [2] (IV @ 1 mg/kg), the AUC(0-t) worked out at 605 ng·h/mL, the Cmax came out at 1160 nM and the half-life was 27 min. Moreover, in series [2] (PO @ 5 mg/kg), the AUC(0-t) was found to be 2270 ng·h/mL, the bioavailability came out at 75.1%, the Cmax was determined as 932 nM and the half-life was 40.8 min.

As for `O=C1N[C@H]2C[C@H](C2)Oc2ncc(F)cc2[C@H]2CCCN2c2nc3c1cnn3cc2F` [Example 2, ((1^3E,1^4E,2^2R,5^1S,5^3S)-1^6,3^5-difluoro-4-oxa-6-aza-1(5,3)-pyrazolo[1,5-a]pyrimidine-3(3,2)-pyridine-2(1,2)-pyrrolidine-5(1,3)-cyclobutancycloheptan-7-one], in series [1], the microsomal CLint at 1 μM worked out at 106 µL/min/mg, the half-life at 1 μM is 13 min and the “% Remaining(45 min)” value is 9.22%. The IC50 at TRKC(G623R) was determined as 1.8 nM. Also, in series [2] (IV @ 1 mg/kg), the AUC(0-t) is 422 ng·h/mL, the Cmax was found to be 875 nM and the half-life is 19.8 min. In series [2] (PO @ 5 mg/kg), the AUC(0-t) is 1500 ng·h/mL, the bioavailability is 70.9%, the Cmax came out at 527 nM and the half-life was 33 min.

Turning to `C[C@H]1Nc2nc3c(cnn3cc2F)C(=O)N[C@H]2C[C@H](C2)Oc2ncc(F)cc21` [Example 3, (3^1S,3^3S,6^3E,6^4E,8R)-1^5,6^6-difluoro-8-methyl-2-oxo-4,7-diaza-6(3,5)-pyrazolo[1,5-a]pyrimidine-1(2,3)-pyridine-3(1,3)-cyclobutylcyclooctane-5-one], in series [1], the microsomal CLint at 1 μM amounted to 32.1 µL/min/mg, the half-life at 1 μM is 43.2 min and the “% Remaining(45 min)” value is on record as 39.49%. The IC50 at TRKC(G623R) was found to be 1.5 nM. Also, in series [2] (IV @ 1 mg/kg), the AUC(0-t) worked out at 1480 ng·h/mL, the Cmax was 573 nM and the half-life was 300 min. Besides, in series [2] (PO @ 5 mg/kg), the AUC(0-t) came out at 8770 ng·h/mL, the bioavailability came out at 119%, the Cmax stood at 1300 nM and the half-life was 181 min.

Take `C[C@H]1Nc2ccn3ncc(c3n2)C(=O)N[C@H]2C[C@H](C2)Oc2ncc(F)cc21` [Positive control 2, reference compound]: in series [1], the microsomal CLint at 1 μM was determined as 73.2 µL/min/mg, the half-life at 1 μM was found to be 18.9 min and the “% Remaining(45 min)” value amounted to 11.64%. The IC50 on TRKC(G623R) amounted to 1.4 nM. In addition, in series [2] (IV @ 1 mg/kg), the AUC(0-t) was 1010 ng·h/mL, the Cmax came to 781 nM and the half-life was 272 min. Besides, in series [2] (PO @ 5 mg/kg), the AUC(0-t) amounted to 3350 ng·h/mL, the bioavailability came out at 66.3%, the Cmax came out at 633 nM and the half-life was 180 min.

What is called microsomal CLint is the capacity of the preparation to metabolise the compound, expressed as a volume cleared per time. A word on the IC50: it is the midpoint of a concentration-inhibition curve. By AUC(0-t) is commonly meant exposure summed from dosing to a finite time, without extrapolation to infinity.

The values above are taken from patent US12428433B2, “Fluorine-containing heterocyclic derivatives with macrocyclic structure and use thereof” (ScinnoHub Pharmaceutical Co., Ltd, priority 2019, dated 2025).
